From ChEMBL document CHEMBL5614440, “Development of Novel Indole-Based Covalent Inhibitors of TEAD as Potential Antiliver Cancer Agents” (J Med Chem, 2024)

Experiments:
HEK293T = assay: Inhibition of TEAD (unknown origin) expressed in HEK293T cells transfected with 8xGTIIC-luciferase at 10 uM by dual luciferase reporter assay relative to control; assay type: cell-based; conditions: Homo sapiens
Huh-7 [1] = assay: Antiproliferative activity against human Huh-7 cells incubated for 3 days by CCK8 assay; assay type: functional, cell-based; conditions: Huh-7, 72 h
Huh-7 [2] = assay: Antiproliferative activity against human Huh-7 cells at 10 uM incubated for 3 days by CCK8 assay; assay type: functional; conditions: time 3 day
Huh-7 [3] = assay: Inhibition of TEAD transcription in human Huh-7 cells transfected with 8xGTIIC-luciferase assessed as downregulation of CTGF protein expression by Western blotting analysis; assay type: cell-based; conditions: dose 1.25-15 µM
Huh-7 [4] = assay: Inhibition of TEAD transcription in human Huh-7 cells transfected with 8xGTIIC-luciferase assessed as downregulation of CTGF mRNA expression incubated for 24 hrs by RT-PCR analysis; assay type: cell-based; conditions: dose 1.25-10 µM
[5] = (§1) Inhibition of TEAD transcription in human Huh-7 cells transfected with 8xGTIIC-luciferase by dual luciferase reporter assay; assay type: cell-based
Huh-7 [6] = assay: Antitumor activity against human Huh-7 cells xenografted in NSG mouse assessed as tumor growth inhibition at 100 mg/kg, po administered every 3 days for 24 days and measured every 3 days; assay type: functional; conditions: Huh-7, 576 h, time 24 day, read-out: TGI
Huh-7 [7] = assay: as §1; assay type: cell-based

Compound	inhibition (HEK293T) [%]	IC50 (Huh-7 [1]) [nM]	further results
O=C(CCl)c1c[nH]c2ccc(OCc3ccc4ccccc4c3)cc12	5.3	> 20000	
COc1cc2[nH]cc(C(=O)CCl)c2cc1OCc1ccc2ccccc2c1	93.9	2400	
N#C/C(=C\c1c[nH]c2cc(Cl)c(OCc3cccc4ccccc34)cc12)C(N)=O	51.3		Activity (Huh-7 [2]): 70%
O=C(CCl)NCc1c[nH]c2cc(Cl)c(OCc3cccc4ccccc34)cc12	81.5	800	
O=C(CCl)c1c[nH]c2cc(Cl)c(OCc3cccc4ccccc34)cc12	69.4	1600	
O=C(CCl)NCc1c[nH]c2cc(Cl)c(OCc3cccc(C(F)(F)F)c3)cc12	47.9	8300	
COc1cc2[nH]cc(C(=O)CCl)c2cc1OCc1cccc2ccccc12	64.5	2500	
N#C/C(=C\c1c[nH]c2cc(Cl)c(OCc3ccc4ccccc4n3)cc12)C(N)=O		68700	
C=C(CN(C)C)C(=O)NCc1c[nH]c2cc(Cl)c(OCc3ccccc3)cc12	71.8	2000	
O=C(CCl)c1c[nH]c2cc(Cl)c(OCc3ccc4ccccc4c3)cc12	95.6	2300	inhibition (Huh-7 [3]): Dose-Dependent Effect; inhibition (Huh-7 [4]): Dose-Dependent Effect; IC50 [5]: 870 nM
O=C(CCl)c1c[nH]c2cc(Cl)c(OCc3ccccc3)cc12	74.6	2700	
O=C(CCl)c1c[nH]c2ccc(OCc3ccccc3)cc12	20.5	10500	
CNC(=O)c1cc(Oc2ccc(NC(=O)Nc3ccc(Cl)c(C(F)(F)F)c3)cc2)ccn1 [SORAFENIB]			inhibition in vivo at 100 mg/kg (Huh-7 [6]): 76%
O=C(CCl)NCc1c[nH]c2cc(Cl)c(OCc3ccccc3)cc12	97.8	1200	inhibition (Huh-7 [3]): Dose-Dependent Effect; inhibition (Huh-7 [7]): Dose-Dependent Effect
